Test results from patent publication US11021444B2, “Antiviral compounds” (priority 2013, dated 2021).
Read-outs that look alike come from different tables or passages of the source.

Key:
[1] = tested on: Respiratory Syncytial Virus (RSV) long strain; experiment: microbe, parasite or virus in culture; assay type: cell-based; settings: human respiratory syncytial virus, Tables A and B list compounds by EC50 band
Protocol: (§1) CPE reduction assays are performed as described by Sidwell and Huffman et al., Appl. Microbiol. (1971) 22(5):797-801 with slight modifications. HEp-2 cells (ATCC #, CCL-23) are seeded at a density of 1,500 cells/30 μl/well into the 384-well cell plate(s) (Corning #3701) one day prior to the assay. Compounds are added into 384-well cell plates by Labcyte POD 810 Plate Assembler system. Each of the test compounds is provided to duplicate wells of a 384-well cell plate at final concentrations starting from 100 μM or 1 μM using 1/3 stepwise dilutions for 9 points. Quick-thaw Respiratory Syncytial Virus (RSV) long strain (ATCC #VR-26) stock in a 37° C. water bath. Place on ice until ready to use. Viruses are diluted to the concentration of 100 TCID50/30 μL with medium and 30 μl diluted RSV are added into related wells of 384-well cell plates. For each plate, sixteen wells are set aside as uninfected, untreated cell controls (CC), and nine wells per test plate receive virus only as a control for virus replication (VC). The final DMSO concentration of all wells is 1%. Place the plates at 37° C., 5% CO2 for 5 days.
After 5 days incubation, observe the CPE of cells in all wells. […] Six μl of cell counting kit-8 reagent (CCK-8, Dojindo Molecular Technologies Inc., CK04-20) are added to each well, which allows colorimetric assays to determine the number of viable cells through the dehydrogenase activity detection. After 3-4 hour incubation, the absorbance of each well is measured with a spectrophotometric plate reader at 450 nm wavelength, using a 630 nm filter as background according to manufacturer's instruction.

[2] = Cytotoxicity Determination (CCK-8, without addition of virus); assay type: cell-based; settings: human, 50% cytotoxicity concentration (CC50)
Protocol: as §1
In order to determine the compound cytotoxicity, in parallel, each of the compounds is applied to duplicate wells in a 384-well cell plate at serial final concentrations starting from 100 μM using 1/2 stepwise dilutions for 7 points without addition of virus. Incubate the cells at 37° C., 5% CO2 for 5 days. Add 6 μL CCK-8 into each well and incubate in a CO2 incubator at 37° C. for 3-4 hours.

[3] = molecular target: recombinant RSV complex (Human respiratory syncytial virus A, UniProt P28887); experiment: RSV Polymerase Inhibition Assay; assay type: biochemical
Sequence of recombinant RSV complex (P28887 whole entry): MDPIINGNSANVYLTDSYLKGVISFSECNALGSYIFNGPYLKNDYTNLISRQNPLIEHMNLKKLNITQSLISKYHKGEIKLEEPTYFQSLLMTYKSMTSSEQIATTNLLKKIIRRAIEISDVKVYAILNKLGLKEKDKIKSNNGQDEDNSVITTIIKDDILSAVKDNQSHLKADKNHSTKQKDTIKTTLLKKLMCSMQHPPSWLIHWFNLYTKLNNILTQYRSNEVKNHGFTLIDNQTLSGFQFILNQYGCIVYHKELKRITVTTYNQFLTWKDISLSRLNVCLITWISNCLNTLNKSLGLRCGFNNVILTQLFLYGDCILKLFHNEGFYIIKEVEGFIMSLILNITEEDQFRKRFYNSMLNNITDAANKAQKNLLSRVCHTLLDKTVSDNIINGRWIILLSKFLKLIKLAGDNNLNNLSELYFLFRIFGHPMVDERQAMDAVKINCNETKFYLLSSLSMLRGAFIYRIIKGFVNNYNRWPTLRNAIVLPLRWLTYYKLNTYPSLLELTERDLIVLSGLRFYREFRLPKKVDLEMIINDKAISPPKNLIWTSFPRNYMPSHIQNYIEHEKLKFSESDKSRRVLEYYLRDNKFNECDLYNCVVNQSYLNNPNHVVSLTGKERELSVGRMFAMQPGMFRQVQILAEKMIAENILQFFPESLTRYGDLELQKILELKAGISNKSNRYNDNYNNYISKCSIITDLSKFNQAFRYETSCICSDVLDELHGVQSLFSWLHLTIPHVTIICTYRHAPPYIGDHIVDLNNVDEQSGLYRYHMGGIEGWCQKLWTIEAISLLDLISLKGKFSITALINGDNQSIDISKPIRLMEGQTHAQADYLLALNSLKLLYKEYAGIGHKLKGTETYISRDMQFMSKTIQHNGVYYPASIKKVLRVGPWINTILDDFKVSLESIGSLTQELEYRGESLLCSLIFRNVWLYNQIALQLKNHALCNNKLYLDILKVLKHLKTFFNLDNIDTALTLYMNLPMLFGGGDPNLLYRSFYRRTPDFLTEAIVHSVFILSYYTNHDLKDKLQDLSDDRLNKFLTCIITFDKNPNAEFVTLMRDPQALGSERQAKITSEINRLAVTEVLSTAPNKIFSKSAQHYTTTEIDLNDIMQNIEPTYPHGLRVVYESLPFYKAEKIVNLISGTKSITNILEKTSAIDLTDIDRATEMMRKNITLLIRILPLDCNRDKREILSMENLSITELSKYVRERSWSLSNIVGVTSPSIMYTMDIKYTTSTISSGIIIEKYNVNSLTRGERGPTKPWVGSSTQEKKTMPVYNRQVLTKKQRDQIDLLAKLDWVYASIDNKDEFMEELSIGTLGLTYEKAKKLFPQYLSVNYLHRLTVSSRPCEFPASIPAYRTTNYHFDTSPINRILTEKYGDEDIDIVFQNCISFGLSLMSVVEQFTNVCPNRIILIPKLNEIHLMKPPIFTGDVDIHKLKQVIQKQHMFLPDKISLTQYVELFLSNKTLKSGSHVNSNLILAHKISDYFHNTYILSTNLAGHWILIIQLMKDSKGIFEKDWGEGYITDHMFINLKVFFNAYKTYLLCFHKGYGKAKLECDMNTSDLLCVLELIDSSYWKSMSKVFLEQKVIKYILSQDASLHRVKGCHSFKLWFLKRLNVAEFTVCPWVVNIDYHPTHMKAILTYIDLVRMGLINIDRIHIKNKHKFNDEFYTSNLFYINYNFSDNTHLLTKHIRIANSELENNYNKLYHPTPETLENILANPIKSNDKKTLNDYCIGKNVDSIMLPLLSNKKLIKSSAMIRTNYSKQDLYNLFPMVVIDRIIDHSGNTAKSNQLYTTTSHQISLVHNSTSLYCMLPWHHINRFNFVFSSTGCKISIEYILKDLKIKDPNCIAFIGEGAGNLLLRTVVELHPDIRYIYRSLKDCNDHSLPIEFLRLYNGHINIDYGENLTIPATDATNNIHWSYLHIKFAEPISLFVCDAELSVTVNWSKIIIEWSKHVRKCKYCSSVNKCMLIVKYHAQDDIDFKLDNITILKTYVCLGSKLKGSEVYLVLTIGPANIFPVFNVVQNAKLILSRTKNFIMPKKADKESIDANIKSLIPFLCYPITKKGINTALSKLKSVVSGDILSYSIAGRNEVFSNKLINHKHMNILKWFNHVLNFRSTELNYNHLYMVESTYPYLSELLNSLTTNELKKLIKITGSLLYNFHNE
Sequence of recombinant RSV complex (P03421 whole entry, further chain): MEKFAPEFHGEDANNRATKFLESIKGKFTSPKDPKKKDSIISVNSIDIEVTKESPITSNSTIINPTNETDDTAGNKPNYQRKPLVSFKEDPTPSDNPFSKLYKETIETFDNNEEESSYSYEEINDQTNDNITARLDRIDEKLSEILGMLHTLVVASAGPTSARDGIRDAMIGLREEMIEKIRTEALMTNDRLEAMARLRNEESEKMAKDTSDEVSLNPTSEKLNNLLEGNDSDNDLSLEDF
Protocol: Standard RSV polymerase assays were conducted in the presence of 10 nM recombinant RSV complex in a reaction buffer containing Tris-HCl pH7.5, 6 mM MgCl2, and other additives and substrates including RNA oligonucleotides and radionucleotides. Standard reactions were incubated in 96-well plate format for 2 h at 30° C., in the presence of increasing concentration of inhibitor. The reaction was stopped with 90 μL of 0.1M EDTA, and the reaction product was transferred to a “reading” 96-well plate. After washing of the plate, radiolabeled RNA products were detected according to standard procedures with a Trilux Topcount scintillation counter.

[4] = HEp-2, 120 h, read-out: 50% effective concentration (EC50), HEp-2 cells infected with RSV long strain, 5 days, CCK-8 readout
[5] = 120 h, read-out: 50% effective concentration (EC50), HEp-2 cells infected with RSV long strain, 5 days, CCK-8 readout

| SMILES | EC50 [1, 4] [µM] | CC50 at 5 days [2] [µM] | IC50 [3] [µM] | EC50 [1, 5] [µM] |
| --- | --- | --- | --- | --- |
| COc1cc(C(=O)NCC(O)(c2ccc(OC)c(-c3ccc(F)c(Cl)c3)n2)C(F)(F)F)ccc1OCC(N)=O (single isomer, unassigned) [Compound 238] | < 1 | 10 to 100 | < 1 | – |
| COc1cc(C(=O)NCC(C)(O)c2cc3c(c(-c4ccc(F)c(Cl)c4)n2)NCC3)ccc1OCCF (single isomer, unassigned) [Compound 294] | < 1 | > 100 | < 10 | – |
| COc1cc(C(=O)NCC(C)(O)c2cc3cc[nH]c3c(-c3ccc(F)c(Cl)c3)n2)ccc1OCCF (single isomer, unassigned) [Compound 296] | < 1 | 10 to 100 | < 10 | – |
| COc1cc(-c2csc3c(F)cccc23)nc(C(O)CNC(=O)c2ccc(OC)c(OC)c2)c1 (stereo not drawn) [Compound 100] | – | 10 to 100 | – | 1 to 50 |
| COc1cc(C(=O)NCC(C)(O)c2cc(CO)cc(-c3ccc(F)c(Cl)c3)n2)ccc1OCC1CC1 (stereo not drawn) [Compound 101] | < 1 | 10 to 100 | < 1 | – |
| CCCn1nc(C(O)CNC(=O)c2ccc(OC)c(OC)c2)nc1-c1csc2c(F)cccc12 (stereo not drawn) [Compound 107] | – | 10 to 100 | – | 1 to 50 |
| COc1ccc(C(=O)NCC(O)c2csc(-c3csc4c(F)cccc34)n2)cc1OC (stereo not drawn) [Compound 108] | – | > 100 | – | 1 to 50 |
| COc1cc(C(=O)NCC(C)(O)c2ncc(OC)c(-c3ccc(F)c(Cl)c3)n2)ccc1OCCO (stereo not drawn) [Compound 109] | 1 to 50 | > 100 | < 10 | – |
| COc1ccc(C(=O)NCC(O)c2cc(C)cc(-c3csc4c(F)cccc34)n2)cc1OC (stereo not drawn) [Compound 111] | – | 10 to 100 | – | 1 to 50 |
| COc1cc(C(O)CNC(=O)c2ccc(OC)c(OC)c2)nc(-c2csc3c(F)cccc23)n1 (stereo not drawn) [Compound 112] | – | 10 to 100 | – | 1 to 50 |
| COc1ccc(C(=O)NCC(O)c2nc(-c3csc4c(F)cccc34)n3ccccc23)cc1OC (stereo not drawn) [Compound 113] | – | 10 to 100 | – | 1 to 50 |
| COCc1ccc(C(=O)NCC(C)(O)c2ccc(OC)c(-c3ccc(F)c(Cl)c3)n2)cc1OC (stereo not drawn) [Compound 114] | 1 to 50 | 10 to 100 | < 10 | – |
| CNC(=O)COc1ccc(C(=O)NCC(C)(O)c2cccc(-c3ccc(F)c(Cl)c3)n2)cc1OC (stereo not drawn) [Compound 121] | – | > 100 | – | 1 to 50 |
| COc1cc(-c2csc3c(F)cccc23)nc(C(O)CNC(=O)c2ccc(OC)c(OC)c2)n1 (stereo not drawn) [Compound 131] | – | 10 to 100 | – | 1 to 50 |
| COc1ccc(C(=O)NCC(O)c2nc(-c3csc4c(F)cccc34)c[nH]2)cc1OC (stereo not drawn) [Compound 132] | – | 10 to 100 | – | 1 to 50 |
| COc1ccc(C(=O)NCC(O)c2nc(-c3csc4c(F)cccc34)cn2C)cc1OC (stereo not drawn) [Compound 133] | – | 10 to 100 | – | 1 to 50 |
| COc1ccc(C(=O)NCC(O)c2nc(-c3csc4c(F)cccc34)cs2)cc1OC (stereo not drawn) [Compound 134] | – | 10 to 100 | – | 1 to 50 |

| SMILES | EC50 [1, 4] [µM] | CC50 at 5 days [2] [µM] | IC50 [3] [µM] | EC50 [1, 5] [µM] |
| --- | --- | --- | --- | --- |
| COc1cc(C(=O)NCC(=O)c2cc3c(c(-c4ccc(F)c(Cl)c4)n2)OCC3)ccc1OCCF [Compound 135] | < 1 | > 100 | < 100 | – |
| COc1ccc(C(=O)NCC(C)(O)c2cccc(-c3csc4c(F)cccc34)n2)cc1OC (stereo not drawn) [Compound 142] | < 1 | 10 to 100 | < 1 | – |
| COc1ccc(C(=O)NCC(OC)c2cccc(-c3csc4c(F)cccc34)n2)cc1OC (stereo not drawn) [Compound 148] | 1 to 50 | 10 to 100 | < 10 | – |
| COc1cc(C(=O)NCC(F)c2ccc(OC)c(-c3ccc(F)c(Cl)c3)n2)ccc1OCCO (stereo not drawn) [Compound 149] | 1 to 50 | 10 to 100 | < 10 | – |
| COc1cc(C(=O)NCC(F)(F)c2ccc(OC)c(-c3ccc(F)c(Cl)c3)n2)ccc1OCCO [Compound 150] | – | > 100 | < 10 | 1 to 50 |
| COc1cc(C(=O)NCC(O)c2ccc3c(n2)-c2c(sc4c(F)cccc24)CO3)ccc1OCCO (stereo not drawn) [Compound 161] | 1 to 50 | 10 to 100 | < 100 | – |
| COc1cc(C(=O)NCC(O)c2cccc(-c3csc4c(F)cccc34)n2)ccc1OCCO (stereo not drawn) [Compound 165] | 1 to 50 | 10 to 100 | < 10 | – |
| COc1cc(C(=O)NCC(=O)c2cc3c(c(-c4ccc(F)c(Cl)c4)n2)OCC3(C)C)cc2c(C)ccnc12 [Compound 229] | – | > 100 | – | 1 to 50 |
| COc1ccc(C(=O)NCC(O)(c2ccc(OC)c(-c3ccc(F)c(Cl)c3)n2)C(F)(F)F)cc1OC (stereo not drawn) [Compound 337] | 1 to 50 | 10 to 100 | – | – |
| COc1cc(C(=O)NCC(O)(c2ccc(OC)c(-c3ccc(F)c(Cl)c3)n2)C(F)(F)F)ccc1OC1CCCNC1=O (stereo not drawn) [Compound 340] | – | 10 to 100 | – | < 1 |
| COc1cc(C(=O)NCC(O)(c2ccc(OC)c(-c3ccc(F)c(Cl)c3)n2)C2CC2)ccc1OCC(N)=O (stereo not drawn) [Compound 429] | – | 10 to 100 | – | < 1 |
| COc1cc(C(=O)NCC(O)(c2ccc(OC)c(-c3ccc(F)c(Cl)c3)n2)C2CC2)ccc1CCO (stereo not drawn) [Compound 433] | – | 10 to 100 | – | < 1 |
| COc1cc(C(=O)NC[C@](O)(c2cc3c(c(-c4ccc(C#N)cc4)n2)OC[C@@]3(C)N)C(F)(F)F)ccc1OCCO [Compound 604c] | – | 10 to 100 | < 10 | – |
| CC(C)(N)c1cc(-c2ccc(F)cc2)nc(C(O)(CNC(=O)c2cnc[nH]2)C(F)(F)F)c1 (stereo not drawn) [Compound 613] | – | > 100 | < 10 | – |
| COc1cc(C(=O)NCC(O)(c2cc(C(C)(C)N)cc(-c3ccc(F)c(Cl)c3)n2)C(F)(F)F)ccc1OCc1nnn[nH]1 (stereo not drawn) [Compound 616] | – | > 100 | < 10 | – |
| CCOC(=O)COc1ccc(C(=O)NCC(O)(c2cc(C(C)(C)N)cc(-c3ccc(F)c(Cl)c3)n2)C(F)(F)F)cc1OC (stereo not drawn) [Compound 617] | – | 10 to 100 | < 1 | – |
| COc1cc(C(=O)NCC(O)(c2cc(C(C)(C)N)cc(-c3ccc(C#N)cc3)n2)C(F)(F)F)ccc1OCC(N)=O (stereo not drawn) [Compound 625] | – | > 100 | < 1 | – |
